Where no end group is shown, it is not given here.
Legend:
[1] = system: S. aureus; assay type: cell-based, Staphylococcus aureus; settings: micro broth dilution, 37 °C, 24 h, MTT indicator, triplicates
[2] = system: K. pneumoniae; assay type: cell-based, Klebsiella pneumoniae; settings: micro broth dilution, 37 °C, 24 h, MTT indicator, triplicates
[3] = system: MRSA; assay type: cell-based, methicillin-resistant Staphylococcus aureus; settings: micro broth dilution, 37 °C, 24 h, MTT indicator, triplicates
[4] = system: E. coli^N (standard strain); assay type: cell-based, Escherichia coli; settings: micro broth dilution, 37 °C, 24 h, MTT indicator, triplicates
[5] = system: S. pyogenes; assay type: cell-based, Streptococcus pyogenes; settings: micro broth dilution, 37 °C, 24 h, MTT indicator, triplicates
[6] = system: human erythrocytes; assay: Hemolytic activity; assay type: cell-based; settings: 1% human erythrocytes in PBS pH 7.40, 37 °C, 1 h, absorbance 570 nm
[7] = system: S. typhi^N; assay type: cell-based, Salmonella typhi; settings: micro broth dilution, 37 °C, 24 h, MTT indicator, triplicates
[8] = system: S. typhi^R; assay type: cell-based, Salmonella typhi; settings: micro broth dilution, 37 °C, 24 h, MTT indicator, triplicates
[9] = system: E. coli^R (resistant strain); assay type: cell-based, Escherichia coli; settings: micro broth dilution, 37 °C, 24 h, MTT indicator, triplicates
[10] = system: S. typhi^R; assay type: cell-based, Salmonella typhi; settings: for FIC index of Cefotaxime in combination with the peptide, S. typhi^R / FIC index of Chloramphenicol in combination with the peptide, S. typhi^R / FIC index of Erythromycin in combination with the peptide, S. typhi^R: FIC(A) = MIC of antibiotic in the presence of peptide / MIC of antibiotic alone; for FIC index of peptide in combination with Cefotaxime, S. typhi^R / FIC index of peptide in combination with Chloramphenicol, S. typhi^R / FIC index of peptide in combination with Erythromycin, S. typhi^R: checkerboard, FIC(A)+FIC(P); for FIC index of peptide in combination with Cefotaxime, S. typhi^R / FIC index of peptide in combination with Chloramphenicol, S. typhi^R / FIC index of peptide in combination with Erythromycin, S. typhi^R / MIC of antibiotic alone, S. typhi: 37 °C, 24 h; for MIC of antibiotic alone, S. typhi: resistant strain, MTT indicator
[11] = system: E. coli^R; assay type: cell-based, Escherichia coli; settings: for FIC index of Cefotaxime in combination with the peptide, E. coli^R / FIC index of Chloramphenicol in combination with the peptide, E. coli^R / FIC index of Erythromycin in combination with the peptide, E. coli^R: FIC(A) = MIC of antibiotic in the presence of peptide / MIC of antibiotic alone; for FIC index of peptide in combination with Cefotaxime, E. coli^R / FIC index of peptide in combination with Chloramphenicol, E. coli^R / FIC index of peptide in combination with Erythromycin, E. coli^R: checkerboard, FIC(A)+FIC(P); for FIC index of peptide in combination with Cefotaxime, E. coli^R / FIC index of peptide in combination with Chloramphenicol, E. coli^R / FIC index of peptide in combination with Erythromycin, E. coli^R / MIC of antibiotic alone, E. coli: 37 °C, 24 h; for MIC of antibiotic alone, E. coli: resistant strain, MTT indicator
[12] = system: MRSA; assay type: cell-based, methicillin-resistant Staphylococcus aureus; settings: for FIC index of Cefotaxime in combination with the peptide, MRSA / FIC index of Chloramphenicol in combination with the peptide, MRSA / FIC index of Erythromycin in combination with the peptide, MRSA: FIC(A) = MIC of antibiotic in the presence of peptide / MIC of antibiotic alone; for MIC of antibiotic alone, MRSA: MTT indicator
[13] = system: microorganisms tested (standard and resistant bacterial strains); assay: MIC range over the strains tested and therapeutic index; assay type: cell-based; settings: for MIC range: range over the strains tested, micro broth dilution
[14] = checkerboard, FIC(A)+FIC(P), 37 °C, 24 h

Compound	Minimum inhibitory concentration; MIC, S. aureus [1]	Minimum inhibitory concentration; MIC, K. pneumoniae [2]	Minimum inhibitory concentration; MIC, MRSA [3]	Minimum inhibitory concentration; MIC, E. coli^N [4]	Minimum inhibitory concentration; MIC, S. pyogenes [5]	MHC (minimum concentration of peptide that causes hemolysis) [6]	Minimum inhibitory concentration; MIC, S. typhi^N [7]	Minimum inhibitory concentration; MIC, S. typhi^R [8]	Minimum inhibitory concentration; MIC, E. coli^R [9]	FIC index of Cefotaxime in combination with the peptide, S. typhi^R [10]	FIC index of Chloramphenicol in combination with the peptide, S. typhi^R [10]	FIC index of Cefotaxime in combination with the peptide, E. coli^R [11]	FIC index of Chloramphenicol in combination with the peptide, E. coli^R [11]	FIC index of Erythromycin in combination with the peptide, E. coli^R [11]	FIC index of Cefotaxime in combination with the peptide, MRSA [12]	FIC index of Chloramphenicol in combination with the peptide, MRSA [12]	FIC index of Erythromycin in combination with the peptide, MRSA [12]	FIC index of Erythromycin in combination with the peptide, S. typhi^R [10]	MIC range [13]	MIC of antibiotic alone, S. typhi [10]	other results
PQQYPEMNTRRNW [BRGP-007]	>1454 µM	>1454 µM	>1454 µM	>1454 µM	>1454 µM	1.454 mM	>1454 µM	>1454 µM	>1454 µM	–	–	–	–	–	–	–	–	–	–	–	–
KGGAIKSLFLILA [BRGP-003]	>1879 µM	>1879 µM	>1879 µM	>1879 µM	>1879 µM	1.127 mM	>1879 µM	>1879 µM	>1879 µM	1.00	1.00	0.50	1.00	1.00	0.50	0.50	0.54	–	–	–	–
KGIKGALSILFAL [BRGP-004]	>1879 µM	>1879 µM	>1879 µM	>1879 µM	>1879 µM	1.503 mM	>1879 µM	>1879 µM	>1879 µM	1.00	1.00	0.50	0.50	0.12	0.50	0.50	0.54	0.50	–	–	–
FALSILGALGIKK [BRGP-006]	939 µM	1879 µM	235 µM	470 µM	470 µM	1.503 mM	>1879 µM	235 µM	470 µM	0.50	0.50	0.50	0.25	0.12	0.50	0.25	1.00	1.00	235 to 1879 µM	–	FIC index of peptide in combination with Cefotaxime, S. typhi^R [10]: 1.00; FIC index of peptide in combination with Chloramphenicol, S. typhi^R [10]: 0.53; FIC index of peptide in combination with Erythromycin, S. typhi^R [10]: 1.50; FIC index of peptide in combination with Cefotaxime, E. coli^R [11]: 2.50; FIC index of peptide in combination with Chloramphenicol, E. coli^R [11]: 0.75; FIC index of peptide in combination with Erythromycin, E. coli^R [11]: 0.25; FIC index of peptide in combination with Cefotaxime, MRSA [12, 14]: 0.75; FIC index of peptide in combination with Chloramphenicol, MRSA [12, 14]: 0.75; FIC index of peptide in combination with Erythromycin, MRSA [12, 14]: 1.030
FLIKSLAGAKGIL [BRGP-002]	>1879 µM	>1879 µM	>1879 µM	>1879 µM	>1879 µM	1.879 mM	>1879 µM	>1879 µM	>1879 µM	1.00	1.00	–	0.50	–	0.50	1.00	1.00	–	–	–	–
AILFLSLGAIKKG [BRGP-001]	117 µM	117 µM	15 µM	>1879 µM	>1879 µM	1.127 mM	>1879 µM	>1879 µM	>1879 µM	0.50	0.50	–	0.25	0.12	0.50	0.063	0.54	0.50	15 to 117 µM	–	FIC index of peptide in combination with Chloramphenicol, MRSA [12, 14]: 2.063; FIC index of peptide in combination with Erythromycin, MRSA [12, 14]: 0.81
CO/N=C(\C(=O)N[C@@H]1C(=O)N2C(C(=O)O)=C(COC(C)=O)CS[C@H]12)c1csc(N)n1 [Cefotaxime, reference compound]	–	–	–	–	–	–	–	–	–	–	–	–	–	–	–	–	–	–	–	68.6 µM	MIC of antibiotic alone, MRSA ([12]; 37 °C, 24 h): 34.3 µM
CC[C@H]1OC(=O)[C@H](C)[C@@H](O[C@H]2C[C@@](C)(OC)[C@@H](O)[C@H](C)O2)[C@H](C)[C@@H](O[C@@H]2O[C@H](C)C[C@H](N(C)C)[C@H]2O)[C@](C)(O)C[C@@H](C)C(=O)[C@H](C)[C@@H](O)[C@]1(C)O [Erythromycin, reference compound]	–	–	–	–	–	–	–	–	–	–	–	–	–	–	–	–	–	–	–	21.3 µM	MIC of antibiotic alone, E. coli [11]: 85.2 µM; MIC of antibiotic alone, MRSA ([12]; 37 °C, 24 h): 1.3 µM
GIKGALKSILFAL [BRGP-005]	>1879 µM	>1879 µM	>1879 µM	470 µM	470 µM	0.188 mM	>1879 µM	470 µM	235 µM	0.50	1.00	0.25	0.25	0.12	0.50	0.50	1.00	0.50	235 to 470 µM	–	FIC index of peptide in combination with Cefotaxime, S. typhi^R [10]: 0.75; FIC index of peptide in combination with Chloramphenicol, S. typhi^R [10]: 1.032; FIC index of peptide in combination with Erythromycin, S. typhi^R [10]: 0.63; FIC index of peptide in combination with Cefotaxime, E. coli^R [11]: 2.25; FIC index of peptide in combination with Chloramphenicol, E. coli^R [11]: 1.25; FIC index of peptide in combination with Erythromycin, E. coli^R [11]: 0.37; Therapeutic Indices (MHC/MIC) ([13]; range over the MIC range): 0.80 to 0.40
O=C(N[C@H](CO)[C@H](O)c1ccc([N+](=O)[O-])cc1)C(Cl)Cl [Chloramphenicol, reference compound]	–	–	–	–	–	–	–	–	–	–	–	–	–	–	–	–	–	–	–	6 µM	MIC of antibiotic alone, E. coli [11]: 386.8 µM; MIC of antibiotic alone, MRSA ([12]; 37 °C, 24 h): 193.4 µM

Source: publication PMC10558864 (Heliyon, 2023)
